This is an account of results in patent EP4420661B1, “SMALL MOLECULES TARGETING GLYCOPROTEIN VI AS ANTIPLATELET AGENTS FOR USE IN THE PREVENTION AND/OR TREATMENT OF THROMBOSIS AND ASSOCIATED PATHOLOGIES” (Universidade de Santiago de Compostela, priority 2023, dated 2024).

The structures appear in SMILES notation. Where only a bound is given, the exact number is not on record here.

Data set [1] is described as follows: plasma protein binding, Rapid Equilibrium Dialysis (RED), dog. It is filed as in vitro ADME. As to conditions: 4h at 37°C. On the procedure:
(§1) Plasma from Seralab was employed in the assay and was carried out by employing Rapid Equilibrium Dialysis (RED) from Thermo Scientific.
(§2) The compounds were dissolved at 5 µM in plasma and added to the corresponding insert of the RED device. Dialysis buffer was added to the corresponding insert of the RED device. Plate was incubated for 4h at 37°C.
(§3) After the incubation period 50 µL aliquots of each chamber were transferred to empty vials. 50 µL of dialysis buffer were added to the plasma samples and 50 µL of plasma were added to the buffer samples. 300 µL of acetonitrile were added to all the samples and centrifuged at 4000 rpm 100 µL aliquots of the supernatants were transferred to a LC analysis plate. Samples were analyzed in a UPLC/MS/MS. Stationary phase: Acquity UPLC® BEHC18 1,7 µm (2.1 mm x 50 mm) (Waters). Gradient: A (H2O + 0.1% Formic acid); B (ACN + 0.1% Formic acid); Flow: 0.6mL/min Table 8: UPLC gradient / Protein binding assay
(§4) The chromatographic equipment employed was an ACQUITY UPLC / Xevo TQD System. Compound concentrations were calculated from the MS peak areas. Table 9: Plasma protein binding of the compounds of formula (I) in rat, mice, dogs and humans / (*) low recovery

The test system of the next data set is Plasma protein. The description is as above. As to conditions: 5 µM, 4h at 37°C. It is filed as in vitro ADME. On the procedure: as §1, §2, §3, §4
Data set [2] is described as follows: metabolic stability, human microsomes. It is filed as in vitro ADME. The procedure: (§5) Microsomes from Tebu-bio Xenotech were employed in the assay, having a content of 20 mg/ml of protein. The following quantities were added to each well of a 96-well microplate. Table 6: Metabolic stability assay.
(§6) Plates were incubated at 37°C and 75 µL samples were taken at 0, 10, 20, 40 and 60 minutes.
(§7) Samples were transferred to a microplate and 75 µl Acetonitrile + IS(Rolipram) were added for inactivating the microsomes, and 30 µl of H2O with 0.5% formic acid for improving the chromatographic conditions and kept at 4°C. When all the samples were taken the plate was centrifuged at […] for 30 min at 15°C. Stationary phase: ACQUITY BEH C18 1.7µm 2.1x50mm (Waters) Mobile phase: A: 0.1% formic; B: acetonitrile+0.1% formic acid Gradient: Table 6: UPLC gradient / Metabolic stability assay
(§8) Metabolic stability was calculated from the logarithm of the remaining compound at each of the times evaluated.

The next data set deals with human platelets. Description: platelet spreading assay on CRP (phalloidin staining, confocal microscopy). It is filed as cell-based. To be noted: 10µM; CRP 1µg/mL; Figure 4. On the procedure:
Platelet spreading experiments were carried out to assess the potency of the compounds of formula (I), exemplified by compounds (If)and (Ih).
Platelets can change from a rounded, non-adherent form to adhere and flatten shape when exposed to ligands. This "spreading" effect can lead to the formation of cytoskeletal protein rearrangement. Platelet adhesion and extent of spreading (area covered) can be quantified.
Briefly, human platelets from healthy individuals were isolated and washed. Then, platelets were incubated with the inhibitors at 10µM for 5 min at room temperature and then for 45 min at 37°C in coverslips coated with 1µg/mL of agonist (CRP).
The images of platelet shape given by phalloidin staining were acquired by confocal fluorescence microscopy and the area analyzed by ImageJ [Onselaer et al., (2020)].

The target of a further data set is T1, CYP3A4 (Homo sapiens, UniProt P08684).
T1 construct: 0.5 mg protein/mL of liver microsomes (HLM Xenotech); tissue Xenotech; host or cells: liver microsomes
T1 sequence (P08684 whole entry): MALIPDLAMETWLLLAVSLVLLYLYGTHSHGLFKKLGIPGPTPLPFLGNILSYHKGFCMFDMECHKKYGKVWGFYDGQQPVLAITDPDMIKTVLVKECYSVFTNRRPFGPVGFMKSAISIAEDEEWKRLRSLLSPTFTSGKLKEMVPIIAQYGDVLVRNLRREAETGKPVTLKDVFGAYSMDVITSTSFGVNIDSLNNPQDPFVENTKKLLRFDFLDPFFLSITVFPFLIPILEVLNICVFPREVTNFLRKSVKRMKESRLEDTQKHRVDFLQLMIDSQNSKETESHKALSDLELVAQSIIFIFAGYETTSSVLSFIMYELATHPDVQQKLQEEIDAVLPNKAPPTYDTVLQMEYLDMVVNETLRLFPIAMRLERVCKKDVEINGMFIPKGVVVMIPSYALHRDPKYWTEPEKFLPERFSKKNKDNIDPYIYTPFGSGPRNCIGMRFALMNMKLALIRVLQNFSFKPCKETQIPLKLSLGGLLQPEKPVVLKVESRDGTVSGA
Put plainly: CYP inhibition, liver microsomes, substrate cocktail. It is filed as in vitro ADME. To be noted: for inhibition at 25 min, 10 µM: human, liver microsomes. The procedure:
(§9) Cytochrome P450 (CYP) are a family of enzymes which play a major role in the metabolism of drugs. Assessment of the potential of a compound to inhibit a specific cytochrome P450 enzyme is important as co-administration of compounds may result in one or both inhibiting the other's metabolism.
(§10) All the incubations were performed in 250 µL reaction medium containing sodium/potassium phosphate buffer 50mM, pH 7.4, 3mM MgCl2, an NADPH regeneration system 1mM NADP, 10mM glucose 6-phosphate, and 1 U/mL glucose 6-phosphate dehydrogenase, 0.5 mg protein/mL of liver microsomes (HLM Xenotech), and a substrate cocktail composed of phenacetin for CYP1A2, diclofenac for CYP2C9, S-mephenytoin for CYP2C19, bufuralol for CYP2D6, midazolam for CYP3A4, and testosterone for CYP3A4. Final concentrations of substrate in the reaction medium were: 10 µM phenacetin, 10 µM diclofenac, 5 µM bufuralol, 100µM S-Mephenytoin, 5 µM midazolam, and 50 µM testosterone. Following incubation at 37°C for 25 min, the reactions were terminated by the addition of ice-cold acetonitrile and the plate was centrifuged at 4000 g for 60 min at 4°C.
(§11) Supernatant was taken and analyzed by UPLC/MS/MS for sample quantification The chromatographic equipment employed was an UPLC QSM Waters Acquity. Stationary phase: Reverse phase Acquity UPLC® BEHC18 1,7 µm (2.1 mm x 100 mm) (Waters) Mobile phase: 0.1% Formic acid water/0.1% formic acid in acetonitrile. Flow: 0.8 ml/min. Gradient: Table 10: UPLC gradient / CYP inhibition assay

In another data set the target is T2, CYP1A2 (Homo sapiens, UniProt P05177).
T2 construct: 0.5 mg protein/mL of liver microsomes (HLM Xenotech); tissue Xenotech; host or cells: liver microsomes
T2 sequence (P05177 1-516): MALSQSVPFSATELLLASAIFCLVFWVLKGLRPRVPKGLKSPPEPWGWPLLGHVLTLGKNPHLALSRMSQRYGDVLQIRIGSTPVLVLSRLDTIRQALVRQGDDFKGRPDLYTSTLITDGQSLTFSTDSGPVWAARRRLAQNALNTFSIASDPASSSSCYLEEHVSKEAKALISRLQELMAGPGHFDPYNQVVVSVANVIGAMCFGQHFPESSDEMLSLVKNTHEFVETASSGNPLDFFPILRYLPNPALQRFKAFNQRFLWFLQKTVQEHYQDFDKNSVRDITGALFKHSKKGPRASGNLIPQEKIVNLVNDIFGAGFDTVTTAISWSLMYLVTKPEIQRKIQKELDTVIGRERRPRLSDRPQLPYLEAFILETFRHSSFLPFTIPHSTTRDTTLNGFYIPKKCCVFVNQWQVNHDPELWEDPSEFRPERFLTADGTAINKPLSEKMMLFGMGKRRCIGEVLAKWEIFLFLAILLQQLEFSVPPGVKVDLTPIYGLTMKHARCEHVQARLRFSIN
The data set is described as above. It is filed as in vitro ADME. On the procedure:
as §9, §10, §11

In the next data set the target is T3, CYP2D6 (Homo sapiens, UniProt P10635).
T3 construct: 0.5 mg protein/mL of liver microsomes (HLM Xenotech); tissue Xenotech; host or cells: liver microsomes
T3 sequence (P10635 whole entry): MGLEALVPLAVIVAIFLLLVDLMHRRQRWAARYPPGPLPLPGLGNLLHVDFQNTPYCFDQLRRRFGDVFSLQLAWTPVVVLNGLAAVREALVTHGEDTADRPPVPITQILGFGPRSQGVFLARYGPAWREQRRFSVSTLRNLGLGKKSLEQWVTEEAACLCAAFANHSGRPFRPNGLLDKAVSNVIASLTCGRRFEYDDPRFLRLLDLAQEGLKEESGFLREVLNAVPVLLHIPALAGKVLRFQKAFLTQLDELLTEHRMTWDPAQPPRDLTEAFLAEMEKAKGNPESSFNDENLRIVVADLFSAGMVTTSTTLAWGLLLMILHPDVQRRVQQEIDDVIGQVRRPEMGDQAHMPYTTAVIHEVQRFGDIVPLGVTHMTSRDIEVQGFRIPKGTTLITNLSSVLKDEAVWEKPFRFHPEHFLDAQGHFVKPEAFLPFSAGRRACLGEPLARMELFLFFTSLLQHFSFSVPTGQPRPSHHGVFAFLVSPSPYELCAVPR
The data set is described as above. It is filed as in vitro ADME. On the procedure:
as §9, §10, §11

Data set [3] is described as follows: metabolic stability, dog microsomes. It is filed as in vitro ADME. As to conditions: Dog microsomes. The procedure: as §5, §6, §7, §8

Regarding `O=C(Cc1ccc2c(c1)OCCO2)Nc1nc(-c2ccc3c(c2)CCC(=O)N3)cs1` [Compound (If)], in data set [1], the fraction unbound at 4 h, 5 µM was 0.0015. Moreover, the Unbound fraction in the data set on Plasma protein is listed as 0.15%. Besides, the values for the half-life in data set [2] and in data set [3] were 46.9 min and 325 min, respectively. The microsomal CLint in data set [2] turned out to be 10.1 µL/min/mg; in data set [3], 2.17 µL/min/mg. The “% remanent (*)” value stood at 41.21% in data set [2] ((*) sampling time 60 min) and 89.2% in data set [3] ((*) sampling time 60 min). The “platelet spreading on CRP (in words)” value in the data set with human platelets is recorded as “inhibition of platelet spreading on CRP”. Also, the IC50 on CYP3A4 (CYP3A4 (Midazolam)) is greater than 10 µM; on CYP3A4 (CYP3A4 (Testosterone), 25 min) it was greater than 10 µM; against CYP1A2 (CYP1A2, substrate phenacetin) it was greater than 10 µM; on CYP2D6 (CYP2D6, substrate bufuralol), greater than 10 µM. For the same compound, the inhibition at 25 min, 10 µM was -9.4% against CYP3A4 (pH 7.4, CYP3A4 (Midazolam)); -12.8% on CYP3A4 (pH 7.4, CYP3A4 (Testosterone)); -5.3% at CYP1A2 (human, liver microsomes, pH 7.4, CYP1A2, 10µM, substrate phenacetin); -2.9% against CYP2D6 (human, liver microsomes, pH 7.4, CYP2D6, 10µM, substrate bufuralol).
